Assay results taken from publication PMC11714206, “Massively Parallel Screening of Toll/Interleukin‐1 Receptor (TIR)‐Derived Peptides Reveals Multiple Toll‐Like Receptors (TLRs)‐Targeting Immunomodulatory Peptides” (Advanced Science, 2024).

Target: T1, MAL^TIR (Homo sapiens, UniProt P58753)
T1 construct: MAL (residues 79–221); 6xHis; made in house; host or cells: E. coli BL21 (DE3)
Assay: T‐Surf phage library (P8 and P3) selection against MAL^TIR, four rounds, NGS read counts
Type: binding
Conditions: for P3_MAL Rank (after) / P3_MAL Rank (before): P3 library; for P8_MAL Rank (after) / P8_MAL Rank (before): P8 library; for Population: 4th round of selection against MAL TIR, share of NGS reads
Outline: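 Library of 190 946 TIR‐derived peptides on P8 or P3 was panned on immobilized TIR domain coated at 5 µg mL^−1, BSA‐blocked, 1 h binding at RT, PBS/0.5% Tween‐20 washes, HCl elution, TG1 amplification. Fourth‐round pools were PCR‐barcoded, sequenced (100 bp paired‐end, Phred ≥30), and peptides ranked by read counts.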

[1] = 4R selection against MAL, rank after grouping
[2] = 4R selection against MAL, rank before grouping
[3] = P8_MAL: rank by count after grouping
[4] = P8_MAL: rank by count before grouping
[5] = selection against MAL, rank after grouping
[6] = selection against MAL, rank before grouping
[7] = selection against MAL TIR, rank by count after grouping
[8] = selection against MAL TIR, rank by count before grouping
[9] = P8_MAL pool: P8 T-Surf phage library
[10] = P3_MAL: rank by count after grouping
[11] = P3_MAL: rank by count before grouping
[12] = selection against MAL, rank by count after grouping
[13] = selection against MAL, rank by count before grouping
[14] = P3_MAL pool: P3 T-Surf phage library

T1 sequence (P58753 79-221): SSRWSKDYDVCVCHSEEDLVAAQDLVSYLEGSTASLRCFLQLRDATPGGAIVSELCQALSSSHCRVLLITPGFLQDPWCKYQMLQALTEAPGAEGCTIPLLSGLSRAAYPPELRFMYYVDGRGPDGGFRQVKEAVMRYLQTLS

Sequence: NQAFWNRLWAKLKPLT
- P3_MAL Rank (after) [1]: 631
- P3_MAL Rank (before) [2]: 3431

Sequence: LVFWESLKHLLRSDDR
- P8_MAL Rank (after) [1]: 636
- P8_MAL Rank (before) [2]: 2163

Sequence: ALLNNFLIKLTHPSII
- Rank (after) [3]: 448
- Rank (before) [4]: 1959

Sequence: NQWRNELTAAANLNGW
- P3_MAL Rank (after) [5]: 508
- P3_MAL Rank (before) [6]: 3405

Sequence: AFLYLSDQSDPSDQF
- P8_MAL Rank (after) [7]: 237
- P8_MAL Rank (before) [8]: 1915

Sequence: AFLYTFLINLTHPNNF
- Population [9]: 0.00463%

Sequence: EKIVEWVWGKVHRTFK
- P8_MAL Rank (after) [7]: 207
- P8_MAL Rank (before) [8]: 896

Sequence: VFLYTFLINLTHPTNF
- Population [9]: 0.00309%

Sequence: YAFTGHLQRYLLQRGV
- Rank (after) [10]: 188
- Rank (before) [11]: 1460

Sequence: FLNFRGLVVRNYFLVH
- P3_MAL Rank (after) [12]: 720
- P3_MAL Rank (before) [13]: 1146

Sequence: RGFLSHLRQHLKAKDH
- P3_MAL Rank (after) [5]: 497
- P3_MAL Rank (before) [6]: 2386

Sequence: PNLRTQVQNYLLPNKT
- P3_MAL Rank (after) [5]: 524
- P3_MAL Rank (before) [6]: 2686

Sequence: AFLYTFLLNLTHQPTF
- P8_MAL Rank (after) [5]: 485
- P8_MAL Rank (before) [6]: 1831

Sequence: GSFREGLWRLLELSKK
- Population [14]: 0.00639%

Sequence: HHKGSYGEALAEDEER
- P3_MAL Rank (after) [1]: 580
- P3_MAL Rank (before) [2]: 2826

Sequence: WFYERLVSLILRYTKV
- Population [9]: 0.00309%

Sequence: YAFTGHLRRYMVQRGV
- P3_MAL Rank (after) [5]: 517
- P3_MAL Rank (before) [6]: 1370

Sequence: FMSHLYQGLKNRGIFTF
- Rank (after) [10]: 113
- Rank (before) [11]: 201

Sequence: AFLYAFLKNLTHPTNF
- P8_MAL Rank (after) [12]: 683
- P8_MAL Rank (before) [13]: 1813

Sequence: RNFVAYLVQALAKKGI
- Rank (after) [3]: 160
- Rank (before) [4]: 2225

Sequence: AFFWEQLRTLLGQPTM
- Rank (after) [3]: 127
- Rank (before) [4]: 1699

Sequence: PFFWEQLRTVLGKPTK
- P8_MAL Rank (after) [5]: 510
- P8_MAL Rank (before) [6]: 2323

Sequence: WLYERLVSLSLRDTKV
- Rank (after) [3]: 168
- Rank (before) [4]: 1429

Sequence: LFFWESLKQLLRSGGR
- Population [9]: 0.0034%

Sequence: YAFTSHLYDRLPAPQH
- P3_MAL Rank (after) [5]: 554
- P3_MAL Rank (before) [6]: 1469

Sequence: TYLGNLNNALVQAGIH
- P8_MAL Rank (after) [5]: 490
- P8_MAL Rank (before) [6]: 2649

Sequence: WFYERLVNLILRDTIV
- P8_MAL Rank (after) [1]: 668
- P8_MAL Rank (before) [2]: 1241

Sequence: SLFCNKLRYHLPAPQH
- P3_MAL Rank (after) [7]: 214
- P3_MAL Rank (before) [8]: 3027

Sequence: AFLYTFLINLTHLPNF
- Rank (after) [3]: 95
- Rank (before) [4]: 1842

Sequence: RVFLSHLRHHLQAKDH
- Population [14]: 0.0124%

Sequence: KLCWEKFKCFLPSLSR
- Rank (after) [3]: 404
- Rank (before) [4]: 2727

Sequence: NLWRNALTAAANLSSW
- P8_MAL Rank (after) [12]: 720
- P8_MAL Rank (before) [13]: 2656

Sequence: KEVEGWRDALRKIANIF
- Rank (after) [10]: 417
- Rank (before) [11]: 3560

Sequence: WFYERLVSLILRDTKM
- Population [9]: 0.00402%

Sequence: PNLRTTVPTYLMRTKT
- P3_MAL Rank (after) [12]: 726
- P3_MAL Rank (before) [13]: 2689

Sequence: SSFTSHLYDRLQRSGI
- P3_MAL Rank (after) [7]: 224
- P3_MAL Rank (before) [8]: 3203

Sequence: YNFISHLHRYLVQRGV
- P3_MAL Rank (after) [5]: 562
- P3_MAL Rank (before) [6]: 1581

Sequence: RGFLSHLRHHLPAKEH
- P3_MAL Rank (after) [7]: 275
- P3_MAL Rank (before) [8]: 2395

Sequence: YFLHSLLISLTDPAYI
- Rank (after) [3]: 452
- Rank (before) [4]: 1510

Sequence: SSFREGLWRLRELGKK
- P3_MAL Rank (after) [1]: 622
- P3_MAL Rank (before) [2]: 3161

Sequence: LFFWDSLKQLMRSDGR
- P8_MAL Rank (after) [7]: 283
- P8_MAL Rank (before) [8]: 2070

Sequence: WFYERQVSLILRDTNV
- Rank (after) [3]: 98
- Rank (before) [4]: 1259

Sequence: KMQKWKDALYEAANE
- P3_MAL Rank (after) [1]: 614
- P3_MAL Rank (before) [2]: 3674

Sequence: LFFWEKLKSVLGNPTM
- P8_MAL Rank (after) [12]: 693
- P8_MAL Rank (before) [13]: 2067

Sequence: KWFWDKLIYALSRNPH
- P8_MAL Rank (after) [7]: 231
- P8_MAL Rank (before) [8]: 1067

Sequence: QLIQQWSELHLHQLQL
- Rank (after) [3]: 443
- Rank (before) [4]: 2381

Sequence: RLWDRLRYLMPRNNHH
- P3_MAL Rank (after) [5]: 571
- P3_MAL Rank (before) [6]: 2325

Sequence: RLLKWKEALHQFQTWL
- P3_MAL Rank (after) [12]: 701
- P3_MAL Rank (before) [13]: 2516

Sequence: WFYARLVRLILRDPKV
- Rank (after) [3]: 419
- Rank (before) [4]: 1135

Sequence: WFYECLVSLILRVTKV
- P8_MAL Rank (after) [7]: 217
- P8_MAL Rank (before) [8]: 1145

Sequence: AFFWQQLKSVPGNPTM
- Rank (after) [3]: 154
- Rank (before) [4]: 1718

Sequence: PNLLTKVLHYLMRTKT
- P3_MAL Rank (after) [12]: 768
- P3_MAL Rank (before) [13]: 2667

Sequence: RLLKWKEALTAAANLSGW
- P3_MAL Rank (after) [1]: 642
- P3_MAL Rank (before) [2]: 2524
